Structures are written as SMILES. Where a name gives a salt, the structure may show the parent alone. Read-outs that look alike come from different tables or passages of the source.

Series [1] concerns the target T1, 2-methylserotonin-induced contraction of the ileum (5-HT3 antagonism) (Cavia porcellus, UniProt O70212).
T1 construct: from tissue; host or cells: isolated nonterminal ileum of male Hartley guinea pig
T1 sequence (O70212 20-490): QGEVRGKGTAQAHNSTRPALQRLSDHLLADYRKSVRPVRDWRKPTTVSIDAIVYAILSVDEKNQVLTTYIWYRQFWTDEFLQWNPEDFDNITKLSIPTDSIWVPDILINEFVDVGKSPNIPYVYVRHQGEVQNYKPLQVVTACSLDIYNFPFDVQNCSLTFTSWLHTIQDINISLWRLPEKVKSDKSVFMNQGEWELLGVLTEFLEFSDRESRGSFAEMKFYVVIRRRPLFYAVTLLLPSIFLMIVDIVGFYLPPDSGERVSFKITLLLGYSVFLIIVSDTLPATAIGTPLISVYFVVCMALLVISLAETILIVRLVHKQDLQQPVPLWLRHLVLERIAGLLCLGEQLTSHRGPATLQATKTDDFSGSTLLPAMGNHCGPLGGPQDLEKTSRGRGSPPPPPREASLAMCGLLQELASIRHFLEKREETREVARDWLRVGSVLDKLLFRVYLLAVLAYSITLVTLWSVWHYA
Kind of series: Antagonism against 2-methylserotonin-induced contraction or systole of ileum. The series is classed as cell-based, guinea pig (Hartley male). To be noted: test compound added 30 minutes before 2-methylserotonin; nonterminal ileum, 37° C.; read-out: pA2 (converted). The method, then: Antagonism against 2-methylserotonin-induced contraction or systole of ileum
This experiment was made according to the method of Sanger et al. [see Eur. J. Pharmacol., 159, 113-124 (1989)]. The nonterminal ileum of a Hartley male guinea pig was suspended in the Krebs-Henseleit solution (37° C.) by applying a load of 0.5 g to the end of the ileum and a gaseous mixture comprising 95% of oxygen and 5% of carbon dioxide was passed through the solution. The contraction of the ileum was isometrically determined. After allowing the ileum to stand for one or more hours for stabilization, a solution of a test compound was added to the solution, and after 30 minutes, 2-methylserotonin was noncumulatively added. The pA2 value was calculated from the rightward shift of the dose-response curve of the 2-methylserotonin-induced contraction caused by the test compound according to the method of Rossum et al. [see Arch. Int. Pharmacodyn., 143, 299(1963)]. BRL 24682 was used as a control in this experiment.

Series [2] has as its system cisplatin-induced vomiting. Nature of the series: Activity against cisplatin-induced vomiting of beagle. The series is classed as in vivo. To be noted: intravenous, one hour after cisplatin 3 mg/kg, 5-hour observation. The method, then: Activity against cisplatin-induced vomiting of beagle
Beagles weighing 7 to 12 kg were used. 3 mg/kg of cisplatin (a product of Sigma) (1 ml/kg of physiological saline) was administered to each beagle through the vein of its forefoot. One hour after the administration of cisplatin, physiological saline (0.2 ml/kg) was administered to a control group of beagles and a solution of a test compound in physiological saline was administered to a test group of beagles, each through the vein of the other forefoot. The frequency of vomiting observed over a 5-hour period from the administration of cisplatin was recorded and the inhibitory ratio of the test compound was calculated according to the following formula.

In series [3] the test system is gastric emptying function. Nature of the series: Activity for raising gastric emptying function. Type of series: in vivo, Fischer male rats. The following applies: oral (5 ml/kg), one hour before test food, versus control rat. The method, then: Activity for raising gastric emptying function
This experiment was made according to the method of Decktot et al. [see Eur. J. Pharmacol., 147, 313-316 (1988)]. Fischer male rats (weight: 160 to 180 g) were fasted for 18 hours before 3 ml of a test food comprising methylcellulose, beef broth, casein, sugar and corn starch was orally administered to each rat. One hour after the administration, the stomach was extirpated from each rat. The gastric emptying ratio was calculated from the weight of the test food remaining in the stomach. The ratio of rise of the gastric emptying function was determined by comparing the gastiric emptying ratio of a medicated rat with that of a control rat which had not administered any test compounds. Each test compound (5 ml/kg) was orally administered one hour before the administration of the test food. BRL 24682 was used as a control in this experiment.

In series [4] the test system is contraction of guinea pig ileum induced by electrical field stimulation (acetylcholine release). Nature of the series: Effect of increasing contraction of guinea pig ileum induced by electrical field stimulation. Type of series: cell-based. The following applies: electrical field stimulation once per 10 seconds, cumulative addition at intervals of 10 minutes, 37° C., read-out: Min. concn. causing increment of ileal contraction. The method, then: Effect of increasing contraction of guinea pig ileum induced by electrical field stimulation
This experiment was made according to the method of Sanger et al. [see Br. J. Pharmacol., 91, 77-87 (1987)]. The longitudinal muscle of the nonterminal ileum of a guinea pig was separated and vertically suspended in the Krebs-Henseleit solution (37° C.) in a Magnus tube by applying a load of 0.5 g to the end of the muscle. A mixed gas comprising 95% of oxygen and 5% of carbon dioxide was passed through the solution. The contraction of the muscle was isometrically determined. Electrical field stimulation was applied to the muscle by the use of a platinum electrode once per 10 seconds to induce the contraction of the muscle. The contraction was caused through the release of acetylcholine. After the muscle had been stabilized, a solution of a test compound was cumulatively added into the Magnus tube at intervals of 10 minutes. The effect of the test compound is represented by percentage based on the initial contraction. The minimum concentration of each test compound at which an increment was found in the contraction due to the release of acetylcholine is shown in Table 4.

The next series deals with rat. Nature of the series: Oral toxicity in rat, one week. The series is classed as in vivo. The following applies: dose of up to 30 mg/kg.
The mark [5] stands for this setting: listed as 42 (+)-isomer, hydrochloride.
Setting [6] is: listed as 43 (-)-isomer, hydrochloride.

For the compound `C#CCC(C)Oc1cc(N)c(Cl)cc1C(=O)N[C@H]1C[C@H]2CC[C@@H](C1)N2C` (single isomer, unassigned; (+)) [Example 42, (+)-endo-4-Amino-5-chloro-N-(8-methyl-8-azabicyclo[3.2.1]oct-3-yl)-2-{(4-pentyn-2-yl)oxy}benzamide hydrochloride], the Kb in series [1] is 1.2 nM. The “Inhibitory ratio against cisplatin-induced vomiting” value (shortened to “Inhibitory ratio”) in series [2] (0.03 mg/kg) is recorded as 59%; in series [2] (0.1 mg/kg) it was 92%. The “Ratio of rise of gastric emptying function” value in series [3] (setting [5]) is listed as 22.2%. In addition, the minimal effective concentration in series [4] (setting [5]) turned out to be 0.086 µM.

Regarding `CC#CC(C)Oc1cc(N)c(Cl)cc1C(=O)N[C@H]1C[C@H]2CC[C@@H](C1)N2C` (single isomer, unassigned; (-)) [Example 4, (-)-endo-4-Amino-5-chloro-N-(8-methyl-8-azabicyclo[3.2.1]oct-3-yl)-2-{(3-pentyn-2-yl)oxy)benzamide hydrochloride], the Kb in series [1] is 2.69 nM. In addition, the “Inhibitory ratio” value came to 37% in series [2] (0.03 mg/kg) and 78% in series [2] (0.1 mg/kg). Moreover, in series [3], the “Ratio of rise of gastric emptying function” value is recorded as 31.1%. In series [4] (listed as 4 (+)-isomer, hydrochloride), the minimal effective concentration amounted to 0.056 µM. Moreover, in the series on rat, the “toxicity on oral administration for one week” value is on record as “no toxicity was exhibited in a dose of up to 30 mg/kg”.

`C#CCC(C)Oc1cc(N)c(Cl)cc1C(=O)N[C@H]1C[C@H]2CC[C@@H](C1)N2C` (single isomer, unassigned; (-)) [Example 43, (-)-endo-4-Amino-5-chloro-N-(8-methyl-8-azabicyclo[3.2.1]oct-3-yl)-2-{(4-pentyn-2-yl)oxy}benzamide hydrochloride]: the “Ratio of rise of gastric emptying function” value in series [3] (setting [6]) is 12.9%. The minimal effective concentration in series [4] (setting [6]) was found to be 0.47 µM. Besides, in the series on rat, the “toxicity on oral administration for one week” value is “no toxicity was exhibited in a dose of up to 30 mg/kg”.

Consider `C#CCOc1cc(N)c(Cl)cc1C(=O)N[C@H]1C[C@H]2CC[C@@H](C1)N2C` [Example 21, endo-4-Amino-5-chloro-(8-methyl-8-azabicyclo[3.2.1]oct-3-yl)-2-propargyloxybenzamide hydrochloride], for which the Kb in series [1] was 3.47 nM. For the same compound, the “Inhibitory ratio” value in series [2] (0.3 mg/kg) worked out at 100%. The “Ratio of rise of gastric emptying function” value in series [3] was determined as 18.9%. Moreover, the minimal effective concentration in series [4] (Cavia porcellus, 10 min) turned out to be 0.052 µM.

Take `C#CC(CCC)Oc1cc(N)c(Cl)cc1C(=O)N[C@H]1C[C@H]2CC[C@@H](C1)N2C` (stereo partly drawn) [Example 29, endo-4-Amino-5-chloro-2-{(1-hexyn-3-yl)oxy}-N-(8-methyl-8-azabicyclo[3.2.1]oct-3-yl)benzamide hydrochloride]: in series [1], the Kb was 0.457 nM. The “Ratio of rise of gastric emptying function” value in series [3] is recorded as 20.6%. The minimal effective concentration in series [4] (Cavia porcellus, 10 min) came out at 0.26 µM.

For the compound `CC(Oc1cc(N)c(Cl)cc1C(=O)N[C@H]1C[C@H]2CC[C@@H](C1)N2C)C1CCCC1` (stereo partly drawn) [Example 32, endo-4-Amino-5-chloro-2-(1-cyclopentylethoxy)-N-(8-methyl-8-azabicyclo[3.2.1]oct-3-yl)benzamide hydrochloride], the Kb in series [1] was 0.933 nM. Moreover, the “Ratio of rise of gastric emptying function” value in series [3] is 18.3%. The minimal effective concentration in series [4] (Cavia porcellus, 10 min) is more than 100 µM.
